One experiment has as its target T1, Adenosine A-1 receptor (Rattus norvegicus, UniProt P25099).
T1 construct: the membranes are isolated from whole animal brains; from tissue; host or cells: whole brain of male Sprague-Dawley rats
T1 sequence (P25099 1-326): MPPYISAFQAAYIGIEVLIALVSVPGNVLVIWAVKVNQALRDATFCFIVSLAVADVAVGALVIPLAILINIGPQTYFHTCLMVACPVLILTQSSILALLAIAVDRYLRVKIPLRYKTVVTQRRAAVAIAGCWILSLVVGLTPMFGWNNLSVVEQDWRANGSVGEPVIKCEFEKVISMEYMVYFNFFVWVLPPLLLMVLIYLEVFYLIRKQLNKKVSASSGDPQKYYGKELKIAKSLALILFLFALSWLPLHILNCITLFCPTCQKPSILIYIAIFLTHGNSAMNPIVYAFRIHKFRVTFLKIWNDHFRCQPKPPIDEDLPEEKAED
The experiment is described as follows: Test for affinity for brain adenosine A-1 receptor binding sites ([3H]cyclohexyladenosine competition). The note with it: [3H]cyclohexyladenosine 0.8 nM, rat brain membranes, 25°C, 2 hours. From the text: Test For Affinity For Brain Adenosine A-1 Receptor Binding Sites
The test described below is used to determine the potency of test compounds to compete with the ligand [3H]cycloadenosine for the Adenosine A-1 receptor prepared from rat brain membranes. Male Sprague-Dawley rats are sacrificed by decapitation and the membranes are isolated from whole animal brains. (See R. Goodman, M. Cooper, M. Gavish, and S. Synder, Guanine Nucleotide and Cation Regulation of the Binding of [3H] Diethylphenylxanthine to Adenosine A-1 Receptors in Brain Membrane, Molecular Pharmacology, 21, 329-335, (1982), incorporated herein by reference.)
Membranes are homogenized (using polytron setting 7 for 10 seconds) in 25 volumes of ice-cold 50 mM Tris-HCl buffer, pH 7.7. The homogenate is centrifuged at 19,000 rpm for 10 minutes at 4°C. The pellet is washed by resuspending in 25 volumes of buffer with 2 IU of adenosine deaminase per ml and incubated 30 minutes at 37°C. The homogenate is centrifuged again. The final pellet is resuspended in 25 volumes of ice-cold buffer.
The incubation tubes, in triplicate, receive 100 µl of [3H]cyclohexyladenosine, 0.8 nM in the assay, 200 µl of test compounds at various concentrations over the range of 10^-10 M to 10^-6 M diluted with […] Tris-HCl buffer (pH 7.7), 0.2 ml of membrane suspension (8 mg wet weight) and in a final volume of 2 ml with Tris buffer. Incubations are carried out at 25°C for 2 hours and each one is terminated within 10 seconds by filtration through a GF/B glass fiber filter using a vacuum. The membranes on the filters are transferred to scintillation vials. The filters are counted by liquid scintillation spectometry in 8 ml of Omniflour containing 5% Protosol.
Specific binding of [3H]cycloadenosine is measured as the excess over blanks taken in the presence of 10^-5 M 2-chloroadenosine. Total membrane-bound radioactivity is about 5% of that added to the test tubes. Specific binding to membranes is about 90% of the total bound. Protein content of the membrane suspension is determined by the method of Lowry, et al. Id., 265.
Displacement of [3H]cyclohexyladenosine binding of 15% or more by a test compound is indicative of affinity for the adenosine binding site.

The target of a further experiment is T2, adenosine A-2 receptors (Rattus norvegicus, UniProt P30543).
T2 construct: the adenosine A-2 receptors prepared from animal brain membranes; from tissue; host or cells: striatum of young male rats (C-D strain, Charles River)
T2 sequence (P30543 whole entry): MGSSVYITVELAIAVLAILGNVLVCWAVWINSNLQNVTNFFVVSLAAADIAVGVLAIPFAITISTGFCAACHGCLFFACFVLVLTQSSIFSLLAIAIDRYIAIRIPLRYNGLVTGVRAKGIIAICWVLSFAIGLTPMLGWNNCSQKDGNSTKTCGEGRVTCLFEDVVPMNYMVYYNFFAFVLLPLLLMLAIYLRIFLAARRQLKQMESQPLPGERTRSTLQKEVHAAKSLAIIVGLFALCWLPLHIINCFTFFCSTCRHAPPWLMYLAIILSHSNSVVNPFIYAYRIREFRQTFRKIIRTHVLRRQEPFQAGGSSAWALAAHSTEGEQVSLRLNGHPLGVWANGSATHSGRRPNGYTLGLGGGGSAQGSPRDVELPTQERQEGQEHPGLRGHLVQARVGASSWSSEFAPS
The experiment is described as follows: Test for affinity for brain adenosine A-2 receptors ([3H]NECA competition). The experiment is classed as binding. Particulars: rat brain striatum membranes, 25°C, 60 minutes, read-out: A-2 Receptor Ki. From the text: Test For Affinity For Brain Adenosine A-2 Receptors
The test described below was used to determine the potency of test compounds to compete with the ligand [3H]5′-N-ethyl-carboxamidoadenosine (NECA) for the adenosine A-2 receptors prepared from animal brain membranes. (See also R.R. Bruns, G.H. Lu, and T.A. Pugsley, Characterization of the A-2 Adenosine Receptor Labeled by [3H]NECA in Rat Striatal Membranes, Mol. Pharmacol., 29, 331-346, (1986), incorporated herein by reference.) Young male rats (C-D strain), obtained from Charles River, are killed by decapitation and the brain was removed. Membranes for ligand binding are isolated from rat brain striatum. The tissue is homogenized in 20 vol ice-cold 50 mM Tris-HCl buffer (pH 7.7) using a polytron (setting 6 for 20 seconds). The homogenate is centrifuged at 50,000 x g for 10 minutes at 4°C. The pellet is again homogenized in a polytron in 20 vol of buffer, and centrifuged as before. The pellet is finally resuspended in 40 vol of 50mM Tris-HCl (pH 7.7) per gram of original wet weight of tissue.
Incubation tubes, in triplicate, receive 100 µl of [3H]NECA (94 nM in the assay), 100 µl of 1 µM cyclohexyladenosine (CHA), 100 µl of 100 mM MgCl2, 100 µl of 1 IU/ml adenosine deaminase, 100 µl of test compounds at various concentrations over the range of 10^-10 M to 10^-4 M diluted with assay buffer (50 mM Tris-HCl, pH 7.7) and […] of membrane suspension (5 mg wet weight), in a final volume of 1 ml of 50 mM Tris-HCl, pH 7.7. Incubations are carried out at 25°C for 60 minutes. Each tube is filtered through GF/B glass fiber filters using a vacuum. The filters are rinsed two times with 5 ml of the ice-cold buffer. The membranes on the filters are transferred to scintillation vials to which 8 ml of Omnifluor with 5% Protosol is added. The filters are counted by liquid scintillation spectrometry.
Specific binding of [3H]NECA is measured as the excess over blanks run in the presence of 100 µM 2-chloroadenosine. Total membrane-bound radioactivity is about 2.5% of that added to the test tubes. […] Specific binding to membranes is about 50% of the total bound. Protein content of the membrane suspension is determined by the method of O.H. Lowry, N.J. Rosebrough, A.L. Farr and R.J. Randall, Protein Measurements With Folin Phenol Reagent, J. Biol. Chem., 193, 265-275 (1951), (incorporated herein by reference).
Displacement of [3H]NECA binding of 15% or more by a test compound is indicative of affinity for the adenosine A-2 site. The molar concentration of a compound which causes 50% inhibition of the binding of ligand is the IC50.

The target of a further experiment is A-2 receptors. The note with it: brain slice assay; cited from earlier work.

By Ki is commonly meant a measure of affinity in units of concentration, obtained from inhibition or displacement.

Bounds are passed on as bounds.

On to `CCCOc1nc(N[C@@H](C)Cc2ccccc2)c2cnn(-c3ccccc3)c2n1` [Compound 2, (S)-N-(1-methyl-2-phenylethyl)-1-phenyl-6-propoxy-1H-pyrazolo[3,4-d]pyrimidin-4-amine], for which the Ki was 11300 nM on Adenosine A-1 receptor and more than 6990 nM at adenosine A-2 receptors.

For the compound `CCCOc1nc(N[C@@H](CO)Cc2ccccc2)c2ncn([C@@H]3O[C@H](CO)[C@@H](O)[C@H]3O)c2n1` [Compound 5], the Ki at Adenosine A-1 receptor was 3700 nM; at adenosine A-2 receptors, 17200 nM.

For the compound `CCCn1c(=O)c2[nH]c(-c3ccc(OCC(=O)NCCN)cc3)nc2n(CCC)c1=O` [XAC, amino congener of 8-phenyl-1,3-dipropyl-xanthine], on A-2 receptors, the Ki was 49 ± 17 nM. On to `CCCn1c(=O)c2[nH]c(-c3ccc(OCC(=O)O)cc3)nc2n(CCC)c1=O` [XCC, carboxylic acid congener of 8-phenyl-1,3-dipropyl-xanthine], for which, at A-2 receptors, the Ki is 34 ± 13 nM.

Regarding `CCCOc1nc(N[C@@H](CO)Cc2ccccc2)c2cnn(-c3ccccc3)c2n1` [Compound 4, (R)-β-[(1-phenyl-6-propoxy-1H-pyrazolo[3,4-d]pyrimidin-4-yl)amino]benzenepropanol], the Ki turned out to be 321 nM at Adenosine A-1 receptor and 377 nM at adenosine A-2 receptors. On to `CCCOc1nc(N[C@H](CO)Cc2ccccc2)c2cnn(-c3ccccc3)c2n1` [Compound 3, (S)-β-[(1-phenyl-6-propoxy-1H-pyrazolo[3,4-d]pyrimidin-4-yl)amino]benzenepropanol], for which the Ki stood at 1740 nM on Adenosine A-1 receptor and 2900 nM at adenosine A-2 receptors. Regarding `CCCOc1nc(N[C@H](CO)Cc2ccccc2)c2ncn([C@@H]3O[C@H](CO)[C@@H](O)[C@H]3O)c2n1` [Compound 6], the Ki at Adenosine A-1 receptor amounted to 44 nM; at adenosine A-2 receptors, 1900 nM. `CCCOc1nc(N[C@H](C)Cc2ccccc2)c2cnn(-c3ccccc3)c2n1` [Compound 1, (R)-N-(1-methyl-2-phenylethyl)-1-phenyl-6-propoxy-1H-pyrazolo[3,4-d]pyrimidin-4-amine]: the Ki was 2010 nM at Adenosine A-1 receptor and 3630 nM on adenosine A-2 receptors.

These data come from EP0390112B1, “Selective adenosine receptor agents” (MERRELL PHARMACEUTICALS INC., priority 1989, dated 1990).
